The text below walks through data of ChEMBL document CHEMBL2074009, “Possible involvement of P-glycoprotein in biliary excretion of CPT-11 in rats” (Drug Metab Dispos, 1999).

In this assay the target is Multidrug resistance protein 1a (Rattus norvegicus) (UniProt Q6PSM0). Put plainly: TP_TRANSPORTER: uptake (high affinity, inhibited by PSC-833, Verapamil and Cyclosporin A) in bile canalicular membrane vesicles from SD rat. It counts as functional, cell membranes. The note with it: Sprague-Dawley, Bile canalicular membrane vesicle.
Multidrug resistance protein 1a (Rattus norvegicus), sequence (Q6PSM0 as listed by the source): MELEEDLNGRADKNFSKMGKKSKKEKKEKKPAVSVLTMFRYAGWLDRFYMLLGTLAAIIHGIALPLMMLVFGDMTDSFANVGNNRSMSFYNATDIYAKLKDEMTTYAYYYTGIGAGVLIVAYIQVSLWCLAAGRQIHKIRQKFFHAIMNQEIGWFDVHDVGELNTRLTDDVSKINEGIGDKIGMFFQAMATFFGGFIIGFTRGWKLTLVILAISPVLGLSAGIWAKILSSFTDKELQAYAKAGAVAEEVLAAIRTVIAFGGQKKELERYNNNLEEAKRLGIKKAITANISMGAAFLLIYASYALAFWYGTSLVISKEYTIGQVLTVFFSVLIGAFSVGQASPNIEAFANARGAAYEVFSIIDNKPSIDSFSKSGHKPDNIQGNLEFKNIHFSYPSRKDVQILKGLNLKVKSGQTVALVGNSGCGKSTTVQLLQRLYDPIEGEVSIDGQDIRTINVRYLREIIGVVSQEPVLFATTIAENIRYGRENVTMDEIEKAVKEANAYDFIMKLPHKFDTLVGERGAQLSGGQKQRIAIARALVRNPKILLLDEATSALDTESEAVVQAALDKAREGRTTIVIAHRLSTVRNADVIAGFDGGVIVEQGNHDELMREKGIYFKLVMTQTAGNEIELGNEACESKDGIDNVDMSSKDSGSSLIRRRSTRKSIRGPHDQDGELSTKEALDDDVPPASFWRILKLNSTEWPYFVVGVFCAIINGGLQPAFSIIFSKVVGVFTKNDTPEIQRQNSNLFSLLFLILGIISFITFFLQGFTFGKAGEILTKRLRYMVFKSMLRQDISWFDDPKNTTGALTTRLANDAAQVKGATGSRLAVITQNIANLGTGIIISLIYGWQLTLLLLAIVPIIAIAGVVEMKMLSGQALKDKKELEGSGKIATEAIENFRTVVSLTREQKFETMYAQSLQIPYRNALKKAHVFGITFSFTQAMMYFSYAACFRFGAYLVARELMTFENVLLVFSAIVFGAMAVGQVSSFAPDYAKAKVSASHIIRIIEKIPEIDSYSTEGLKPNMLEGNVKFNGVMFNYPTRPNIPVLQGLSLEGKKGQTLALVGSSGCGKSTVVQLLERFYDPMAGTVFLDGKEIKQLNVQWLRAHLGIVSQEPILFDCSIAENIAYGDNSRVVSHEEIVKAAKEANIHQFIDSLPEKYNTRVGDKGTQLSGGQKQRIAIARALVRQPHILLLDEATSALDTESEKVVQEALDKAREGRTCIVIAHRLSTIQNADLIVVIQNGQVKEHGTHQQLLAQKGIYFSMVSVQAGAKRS

Turning to `CCc1c2c(nc3ccc(OC(=O)N4CCC(N5CCCCC5)CC4)cc13)-c1cc([C@@](O)(CC)C(=O)O)c(CO)c(=O)n1C2`, the Activity result is “substrate [+]”.
